Target: T1, PPARG (peroxisome proliferator activated receptor-gamma), GST-PPARG-LBD (Homo sapiens, UniProt P37231)
T1 construct: 15 μL of 5 nM GST-PPARG-LBD and 5 nM Tb-GST-antibody were added; purchased Invitrogen PV4894
T1 sequence (P37231 238-503 limits assumed): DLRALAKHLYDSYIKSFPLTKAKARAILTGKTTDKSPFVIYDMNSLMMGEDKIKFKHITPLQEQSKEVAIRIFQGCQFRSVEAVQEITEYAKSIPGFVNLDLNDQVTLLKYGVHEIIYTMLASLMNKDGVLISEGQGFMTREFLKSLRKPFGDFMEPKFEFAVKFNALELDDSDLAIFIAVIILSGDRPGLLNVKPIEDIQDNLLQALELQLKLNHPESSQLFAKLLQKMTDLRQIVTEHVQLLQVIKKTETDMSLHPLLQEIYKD
Assay: LanthaScreen TR-FRET PPARG Competitive Binding Assay
Set-up: key: “+” indicates the degree of the binding activity, and as the number of “+” increases, the binding activity is stronger; ++: “+” indicates the degree of the binding activity, and as the number of “+” increases, the binding activity is stronger; +++: “+” indicates the degree of the binding activity, and as the number of “+” increases, the binding activity is stronger; ++++: “+” indicates the degree of the binding activity, and as the number of “+” increases, the binding activity is stronger
Settings: degree of binding activity
Procedure, shortened: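 Ratio of 518 nm to 488 nm time-resolved emission after a 1 h room-temperature incubation, in competition format with GST-PPARG ligand-binding domain. Values are expressed as 100% minus compound-to-vehicle ratio and related to rosiglitazone binding.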

Compound | Binding assay (1 μLM)
C[C@H](NC(=O)c1ccc2c(c1)CCCN2Cc1cccc(-c2ccccc2C(N)=O)c1F)c1ccc2ccccc2c1 [Example 132, (S)-1-((2′-carbamoyl-2-fluoro-[1,1′-biphenyl]-3-yl)methyl)-N-(1-(naphthalene-2-yl)ethyl)-1,2,3,4-tetrahydroquinoline-6-carboxamide] | ++++
Cc1ccc([C@H](C)NC(=O)c2ccc3c(c2)CCCN3Cc2cccc(-c3ccccc3C(N)=O)c2F)cc1F [Example 133, (S)-1-((2′-carbamoyl-2-fluoro-[1,1′-biphenyl]-3-yl)methyl)-N-(1-(3-fluoro-4-methylphenyl)ethyl)-1,2,3,4-tetrahydroquinoline-6-carboxamide] | +++
C[C@H](NC(=O)c1ccc2c(c1)CCCN2Cc1cc(-c2ccccc2C(=O)O)ccc1F)c1ccccc1 [Example 134, (S)-4′-fluoro-3′-((6-((1-phenylethyl)carbamoyl)-3,4-dihydroquinoline-1(2H)-yl)methyl)-[1,1′-biphenyl]-2-carboxylic acid] | ++++
C[C@H](NC(=O)c1ccc2c(c1)CCCN2Cc1cc(-c2ccccc2C(N)=O)ccc1F)c1ccccc1 [Example 135, (S)-1-((2′-carbamoyl-4-fluoro-[1,1′-biphenyl]-3-yl)methyl)-N-(1-phenylethyl)-1,2,3,4-tetrahydroquinoline-6-carboxamide] | +++
C[C@H](NC(=O)c1ccc2c(c1)CCCN2Cc1cc(-c2ccccc2C(=O)O)ccc1F)c1ccc([N+](=O)[O-])cc1 [Example 136, (S)-4′-fluoro-3′-((6-((1-(4-nitrophenyl)ethyl)carbamoyl)-3,4-dihydroquinoline-1(2H)-yl)methyl)-[1,1′-biphenyl]-2-caboxylic acid] | +++
C[C@H](NC(=O)c1ccc2c(c1)CCCN2Cc1cc(-c2ccccc2C(=O)O)ccc1F)c1ccc2ccccc2c1 [Example 137, (S)-4′-fluoro-3′-((6-((1-(naphthalene-2-yl)ethyl)carbamoyl)-3,4-dihydroquinoline-1(2)-yl)methyl)-[1,1′-biphenyl]-2-carboxylic acid] | ++++
Cc1ccc([C@H](C)NC(=O)c2ccc3c(c2)CCCN3Cc2cc(-c3ccccc3C(=O)O)ccc2F)cc1F [Example 138, (S)-4′-fluoro-3′-((6-((1-(3-fluoro-4-methylphenyl)ethyl)carbamoyl)-3,4-dihydroquinoline-1(2H)-yl)methyl)-[1,1′-biphenyl]-2-caboxylic acid] | ++++
C[C@H](NC(=O)c1ccc2c(c1)CCCN2Cc1cc(-c2ccccc2C(N)=O)ccc1F)c1ccc2ccccc2c1 [Example 140, (S)-1-((2′-carbamoyl-4-fluoro-[1,1′-biphenyl]-3-yl)methyl)-N-(1-(naphthalene-2-yl)ethyl)-1,2,3,4-tetrahydroquinoline-6-carboxamide] | ++++
Cc1ccc([C@H](C)NC(=O)c2ccc3c(c2)CCCN3Cc2cc(-c3ccccc3C(N)=O)ccc2F)cc1F [Example 141, (S)-1-((2′-carbamoyl-4-fluoro-[1,1′-biphenyl]-3-yl)methyl)-N-(1-(3-fluoro-4-methylphenyl)ethyl)-1,2,3,4-tetrahydroquinoline-6-carboxamide] | +++
C[C@H](NC(=O)c1ccc2c(c1)OCCN2Cc1ccccc1-c1ccc(C(=O)O)cc1)c1ccccc1 [Example 142, (S)-2′-((7-((1-phenylethyl)carbamoyl)-2H-benzo[b][1,4]oxazine-4(3H)-yl)methyl)-[1,1′-biphenyl]-4-carboxylic acid] | ++
C[C@H](NC(=O)c1ccc2c(c1)OCCN2Cc1ccccc1-c1ccc(C(N)=O)cc1)c1ccccc1 [Example 143, (S)-4-((4′-carbamoyl-[1,1′-biphenyl]-2-yl)methyl)-N-(1-phenylethyl)-3,4-dihydro-2H-benzo[b][1,4]oxazine-7-carboxamide] | ++
C[C@H](NC(=O)c1ccc2c(c1)OCCN2Cc1ccccc1-c1ccc(C(=O)O)cc1)c1ccc(C#N)cc1 [Example 144, (S)-2′-((7-((1-(4-cyanophenyl)ethyl)carbamoyl)-2H-benzo[b][1,4]oxazine-4(3H)-yl)methyl)-[1,1′-biphenyl]-4-carboxylic acid] | +
Cc1ccc([C@H](C)NC(=O)c2ccc3c(c2)OCCN3Cc2ccccc2-c2ccc(C(=O)O)cc2)cc1F [Example 145, (S)-2′-((7-((1-(3-fluoro-4-methylphenyl)ethyl)carbamoyl)-2H-benzo[b][1,4]oxazine-4(3H)-yl)methyl)-[1,1′-biphenyl]-4-carboxylic acid] | ++
C[C@H](NC(=O)c1ccc2c(c1)OCCN2Cc1ccccc1-c1ccc(C(=O)O)cc1)c1ccc([N+](=O)[O-])cc1 [Example 146, (S)-2′-((7-((1-(4-nitrophenyl)ethyl)carbamoyl)-2H-benzo[b][1,4]oxazine-4 (3H)-yl)methyl)-[1,1′-biphenyl]-4-carboxylic acid] | +
C[C@H](NC(=O)c1ccc2c(c1)OCCN2Cc1ccccc1-c1ccc(C(=O)O)cc1)c1ccc2ccccc2c1 [Example 147, (S)-2′-((7-((1-(naphthalene-2-yl)ethyl)carbamoyl)-2H-benzo[b][1,4]oxazine-4(3H)-yl)methyl)-[1,1′-biphenyl]-4-carboxylic acid] | +++
Cc1ccc([C@H](C)NC(=O)c2ccc3c(c2)OCCN3Cc2ccccc2-c2ccc(C(N)=O)cc2)cc1F [Example 148, (S)-4-((4′-carbamoyl-[1,1′-biphenyl]-2-yl)methyl)-N-(1-(3-fluoro-4-methylphenyl)ethyl)-3,4-dihydro-2H-benzo[b][1,4]oxazine-7-carboxamide] | ++
C[C@H](NC(=O)c1ccc2c(c1)OCCN2Cc1ccccc1-c1ccc(C(N)=O)cc1)c1ccc(C#N)cc1 [Example 149, (S)-4-((4′-carbamoyl-[1,1′-biphenyl]-2-yl)methyl)-N-(1-(4-cyanophenyl)ethyl)-3,4-dihydro-2H-benzo[b][1,4]oxazine-7-carboxamide] | +
C[C@H](NC(=O)c1ccc2c(c1)OCCN2Cc1ccccc1-c1ccc(C(N)=O)cc1)c1ccc([N+](=O)[O-])cc1 [Example 150, (S)-4-((4′-carbamoyl-[1,1′-biphenyl]-2-yl)methyl)-N-(1-(4-nitrophenyl)ethyl)-3,4-dihydro-2H-benzo[b][1,4]oxazine-7-carboxamide] | ++
C[C@H](NC(=O)c1ccc2c(c1)OCCN2Cc1ccccc1-c1ccc(C(N)=O)cc1)c1ccc2ccccc2c1 [Example 151, (S)-4-((4′-carbamoyl-[1,1′-biphenyl]-2-yl)methyl)-N-(1-(naphthalene-2-yl)ethyl)-3,4-dihydro-2H-benzo[b][1,4]oxazine-7-carboxamide] | +++
C[C@H](NC(=O)c1ccc2c(c1)CCCN2Cc1ccccc1-c1ccc(C(=O)O)cc1)c1ccccc1 [Example 152, (S)-2′-((6-((1-phenylethyl)carbamoyl)-3,4-dihydroquinoline-1 (2H)-yl)methyl)-[1,1′-biphenyl]-4-carboxylic acid] | ++
C[C@H](NC(=O)c1ccc2c(c1)CCCN2Cc1ccccc1-c1ccc(C(N)=O)cc1)c1ccccc1 [Example 153, (S)-1-((4′-carbamoyl-[1,1′-biphenyl]-2-yl)methyl)-N-(1-phenylethyl)-1,2,3,4-tetrahydroquinolin-6-carboxamide] | ++
Cc1ccc([C@H](C)NC(=O)c2ccc3c(c2)CCCN3Cc2ccccc2-c2ccc(C(=O)O)cc2)cc1F [Example 154, (S)-2′-((6-((1-(3-fluoro-4-methylphenyl)ethyl)carbamoyl)-3,4-dihydroquinoline-1(2H)-yl)methyl)-[1,1′-biphenyl]-4-carboxylic acid] | +
Cc1ccc([C@H](C)NC(=O)c2ccc3c(c2)CCCN3Cc2ccccc2-c2ccc(C(N)=O)cc2)cc1F [Example 158, (S)-1-((4′-carbamoyl-[1,1′-biphenyl]-2-yl)methyl)-N-(1-(3-fluoro-4-methylphenyl)ethyl)-1,2,3,4-tetrahydroquinoline-6-carboxamide] | +
C[C@H](NC(=O)c1ccc2c(c1)CCCN2Cc1ccccc1-c1ccc(C(N)=O)cc1)c1ccc([N+](=O)[O-])cc1 [Example 159, (S)-1-((4′-carbamoyl-[1,1′-biphenyl]-2-yl)methyl)-N-(1-(4-nitrophenyl)ethyl)-1,2,3,4-tetrahydroquinoline-6-carboxamide] | +
C[C@H](NC(=O)c1ccc2c(c1)CCCN2Cc1ccccc1-c1ccc(C(N)=O)cc1)c1ccc2ccccc2c1 [Example 160, (S)-1-((4′-carbamoyl-[1,1′-biphenyl]-2-yl)methyl)-N-(1-(naphthalene-2-yl)ethyl)-1,2,3,4-tetrahydroquinoline-6-carboxamide] | ++
C[C@H](NC(=O)c1ccc2c(c1)CCCN2Cc1ccccc1-c1ccc(C(N)=O)cc1)c1ccc(C#N)cc1 [Example 161, (S)-1-((4′-carbamoyl-[1,1′-biphenyl]-2-yl)methyl)-N-(1-(4-cyanophenyl)ethyl)-1,2,3,4-tetrahydroquinoline-6-carboxamide] | ++
